According to ChEMBL document CHEMBL1131550, “Conformationally constrained inhibitors of caspase-1 (interleukin-1 beta converting enzyme) and of the human CED-3 homologue caspase-3 (CPP32, apopain)” (Bioorg Med Chem Lett, 1998):

How the values were obtained:
Caspase-1 = biological target: T1, Caspase-1 (Mus musculus, UniProt P29452); test: Inhibitory activity against Caspase-1 using Ac-TyrValAlaAsp-amc as substrate
T1 sequence (P29452 whole entry): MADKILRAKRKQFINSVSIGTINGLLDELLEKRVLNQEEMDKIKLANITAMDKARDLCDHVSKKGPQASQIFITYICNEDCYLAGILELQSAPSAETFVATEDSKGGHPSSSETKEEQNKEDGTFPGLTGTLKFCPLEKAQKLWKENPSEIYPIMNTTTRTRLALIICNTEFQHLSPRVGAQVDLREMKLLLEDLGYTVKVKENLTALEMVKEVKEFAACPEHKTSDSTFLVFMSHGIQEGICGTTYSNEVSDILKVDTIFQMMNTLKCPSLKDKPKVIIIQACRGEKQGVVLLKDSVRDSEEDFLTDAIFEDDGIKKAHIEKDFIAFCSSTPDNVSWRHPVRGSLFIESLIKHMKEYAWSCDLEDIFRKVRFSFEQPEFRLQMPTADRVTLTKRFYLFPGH

Caspase-3 = biological target: T2, Caspase-3 (Homo sapiens, UniProt P42574); test: Inhibitory activity against human Caspase-3 using Ac-AspGluValAsp as substrate
T2 sequence (P42574 whole entry): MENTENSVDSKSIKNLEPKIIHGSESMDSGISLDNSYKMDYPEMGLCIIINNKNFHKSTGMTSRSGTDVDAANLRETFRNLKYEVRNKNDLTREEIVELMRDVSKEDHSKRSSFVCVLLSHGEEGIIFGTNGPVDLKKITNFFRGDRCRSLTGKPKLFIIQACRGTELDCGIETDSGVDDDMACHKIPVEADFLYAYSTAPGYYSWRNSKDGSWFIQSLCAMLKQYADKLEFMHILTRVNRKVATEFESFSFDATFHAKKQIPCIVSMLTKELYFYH

| SMILES | IC50 (Caspase-1) | IC50 (Caspase-3) |
| --- | --- | --- |
| CC(=O)N[C@@H](CC(=O)O)C(=O)N[C@H](C(=O)N[C@@H](C)C(=O)N[C@H]1CC(=O)OC1O)C(C)C (stereo partly drawn) | 523 nM | – |
| CC(=O)N[C@@H](Cc1ccc(O)cc1)C(=O)N[C@H](C(=O)N[C@@H](C)C(=O)N[C@H]1CC(=O)OC1O)C(C)C (stereo partly drawn) | 4.6 nM | – |
| C[C@@H](C(=O)N[C@H]1CC(=O)OC1O)N1CCCC[C@H](NC(=O)OCc2ccccc2)C1=O (stereo partly drawn) | 186 nM | > 10000 nM |
| CC(C)[C@H](NC(=O)OCc1ccccc1)C(=O)N1CCC[C@H]1C(=O)N[C@H]1CC(=O)OC1O (stereo partly drawn) | 87 nM | – |
| CC(C)[C@H](NC(=O)OCc1ccccc1)C(=O)N[C@@H](C)C(=O)N[C@H]1CC(=O)OC1O (stereo partly drawn) | 64 nM | – |
| CC(=O)N[C@@H](CC(=O)O)C(=O)N[C@H]1CCC[C@H]2SC[C@@H](C(=O)N[C@H]3CC(=O)OC3O)N2C1=O (stereo partly drawn) | 10400 nM | 18 nM |
| O=C1C[C@H](NC(=O)[C@@H]2CCC[C@@H]3CCC[C@H](NC(=O)OCc4ccccc4)C(=O)N32)C(O)O1 (stereo partly drawn) | 36 nM | > 10000 nM |
| CC(C)[C@H](NC(=O)OCc1ccccc1)C(=O)N1CCCC[C@H]1C(=O)N[C@H]1CC(=O)OC1O (stereo partly drawn) | 95 nM | – |
| CC(=O)N[C@@H](CC(=O)O)C(=O)N[C@@H](CCC(=O)O)C(=O)N[C@H](C(=O)N[C@H]1CC(=O)OC1O)C(C)C (stereo partly drawn) | 71 nM | 1.2 nM |
| O=C1C[C@H](NC(=O)[C@@H]2CS[C@H]3CC[C@H](NC(=O)OCc4ccccc4)C(=O)N32)C(O)O1 (stereo partly drawn) | 4800 nM | – |
| O=C(CN1CC[C@H](NC(=O)OCc2ccccc2)C1=O)N[C@H]1CC(=O)OC1O (stereo partly drawn) | > 10000 nM | > 10000 nM |
| C[C@@H](C(=O)N[C@H]1CC(=O)OC1O)N1CC[C@H](NC(=O)OCc2ccccc2)C1=O (stereo partly drawn) | 3700 nM | > 100000 nM |
| O=C1C[C@H](NC(=O)[C@@H]2CS[C@@H]3CCC[C@H](NC(=O)OCc4ccccc4)C(=O)N32)C(O)O1 (stereo partly drawn) | 159 nM | > 10000 nM |
| O=C(CN1CCCC[C@H](NC(=O)OCc2ccccc2)C1=O)N[C@H]1CC(=O)OC1O (stereo partly drawn) | 1680 nM | – |
| O=C(CN1CCC[C@H](NC(=O)OCc2ccccc2)C1=O)N[C@H]1CC(=O)OC1O (stereo partly drawn) | 37000 nM | > 100000 nM |
